These results are taken from ChEMBL document CHEMBL5303573, “Mapping human microbiome drug metabolism by gut bacteria and their genes” (Nature, 2019).

What all share (assay type): ADME
Holding throughout (design): dose 2 uM
Conditions in all cases: 2 µM

One data set concerns the target T1, Acyltransferase (Bacteroides thetaiotaomicron, UniProt Q8A575).
T1 sequence (Q8A575 whole entry): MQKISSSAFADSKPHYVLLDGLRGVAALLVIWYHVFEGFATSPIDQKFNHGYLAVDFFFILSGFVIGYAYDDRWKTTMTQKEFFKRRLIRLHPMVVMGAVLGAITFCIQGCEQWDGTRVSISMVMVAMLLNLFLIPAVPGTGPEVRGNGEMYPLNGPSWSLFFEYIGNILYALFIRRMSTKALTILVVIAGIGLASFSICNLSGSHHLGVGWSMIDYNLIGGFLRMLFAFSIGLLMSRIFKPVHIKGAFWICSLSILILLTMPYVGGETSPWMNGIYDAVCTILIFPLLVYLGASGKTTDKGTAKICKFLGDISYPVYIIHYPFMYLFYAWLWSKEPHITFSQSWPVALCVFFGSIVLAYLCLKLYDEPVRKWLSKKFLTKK
Nature of the data set: (§1) The drug is tested on Bacteroides thetaiotaomicron strain: VPI-5482 for biotransformation. The drug concentrations were measured before and after a 12-h incubation by liquid-chromatography-coupled mass spectrometry (LC–MS).

For data set [1], the target named is T2, 3-oxo-5-alpha-steroid 4-dehydrogenase (Bacteroides thetaiotaomicron, UniProt Q8A618).
T2 sequence (Q8A618 whole entry): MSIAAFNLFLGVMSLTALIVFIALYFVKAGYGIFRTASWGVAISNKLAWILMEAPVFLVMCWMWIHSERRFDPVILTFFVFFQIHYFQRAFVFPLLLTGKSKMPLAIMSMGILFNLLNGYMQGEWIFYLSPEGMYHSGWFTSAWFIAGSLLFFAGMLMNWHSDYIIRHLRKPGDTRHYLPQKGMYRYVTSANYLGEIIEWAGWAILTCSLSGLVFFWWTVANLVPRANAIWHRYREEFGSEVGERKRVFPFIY
The description is as §1.

For the next data set, the target named is T3, Xylanase (Bacteroides thetaiotaomicron, UniProt Q8A8H5).
T3 sequence (Q8A8H5 whole entry): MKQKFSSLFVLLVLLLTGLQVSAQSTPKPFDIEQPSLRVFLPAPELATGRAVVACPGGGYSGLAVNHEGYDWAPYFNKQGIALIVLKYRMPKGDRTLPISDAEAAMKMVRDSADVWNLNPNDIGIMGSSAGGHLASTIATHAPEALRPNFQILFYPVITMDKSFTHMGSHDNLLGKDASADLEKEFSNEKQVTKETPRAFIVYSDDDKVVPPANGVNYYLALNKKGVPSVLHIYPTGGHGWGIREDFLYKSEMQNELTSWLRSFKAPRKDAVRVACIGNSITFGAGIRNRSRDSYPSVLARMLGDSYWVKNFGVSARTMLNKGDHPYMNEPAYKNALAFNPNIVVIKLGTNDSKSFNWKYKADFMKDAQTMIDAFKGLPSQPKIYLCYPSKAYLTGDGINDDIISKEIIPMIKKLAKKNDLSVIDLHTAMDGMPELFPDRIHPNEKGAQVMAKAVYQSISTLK
The data set is described as §1.

Data set [2] has as its target T4, Nitroreductase-like protein (Bacteroides thetaiotaomicron, UniProt Q8AB93).
T4 sequence (Q8AB93 whole entry): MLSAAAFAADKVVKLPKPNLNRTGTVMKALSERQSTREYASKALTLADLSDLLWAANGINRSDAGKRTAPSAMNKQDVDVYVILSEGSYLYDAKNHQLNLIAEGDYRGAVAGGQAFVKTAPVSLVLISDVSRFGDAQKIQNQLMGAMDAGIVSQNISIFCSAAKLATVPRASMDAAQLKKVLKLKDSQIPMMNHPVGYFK
The description is as §1.

The next data set addresses T5, Acylhydrolase (Bacteroides thetaiotaomicron, UniProt Q8AA96).
T5 sequence (Q8AA96 whole entry): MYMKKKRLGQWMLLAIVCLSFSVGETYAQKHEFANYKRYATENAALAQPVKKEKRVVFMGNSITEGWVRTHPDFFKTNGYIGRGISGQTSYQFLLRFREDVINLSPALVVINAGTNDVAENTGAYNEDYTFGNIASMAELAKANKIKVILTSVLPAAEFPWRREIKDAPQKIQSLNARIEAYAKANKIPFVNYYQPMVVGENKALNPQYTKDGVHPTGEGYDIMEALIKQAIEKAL
The description is as §1.

For data set [3], the target named is T6, Sialic acid-specific 9-O-acetylesterase (Bacteroides thetaiotaomicron, UniProt Q8A0D0).
T6 sequence (Q8A0D0 whole entry): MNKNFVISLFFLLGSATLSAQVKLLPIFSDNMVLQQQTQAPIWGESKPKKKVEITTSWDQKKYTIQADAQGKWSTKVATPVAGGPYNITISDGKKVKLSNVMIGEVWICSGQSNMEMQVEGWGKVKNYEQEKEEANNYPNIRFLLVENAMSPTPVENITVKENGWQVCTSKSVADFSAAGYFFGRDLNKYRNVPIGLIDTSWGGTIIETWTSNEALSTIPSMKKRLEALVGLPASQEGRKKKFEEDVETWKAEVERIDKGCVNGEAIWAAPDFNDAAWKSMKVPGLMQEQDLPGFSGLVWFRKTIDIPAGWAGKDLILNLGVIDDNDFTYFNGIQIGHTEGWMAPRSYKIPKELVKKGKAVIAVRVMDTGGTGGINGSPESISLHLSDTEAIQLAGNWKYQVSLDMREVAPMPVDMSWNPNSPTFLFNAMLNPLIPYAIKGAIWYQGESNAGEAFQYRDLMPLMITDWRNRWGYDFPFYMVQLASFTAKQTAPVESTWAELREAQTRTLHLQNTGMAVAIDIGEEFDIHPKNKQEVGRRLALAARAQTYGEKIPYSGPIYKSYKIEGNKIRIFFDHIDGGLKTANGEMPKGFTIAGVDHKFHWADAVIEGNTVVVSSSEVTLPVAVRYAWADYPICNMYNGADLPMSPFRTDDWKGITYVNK
The description is as §1.

The target of a further data set is T7, Lipoprotein (Bacteroides thetaiotaomicron, UniProt Q8A343).
T7 sequence (Q8A343 whole entry): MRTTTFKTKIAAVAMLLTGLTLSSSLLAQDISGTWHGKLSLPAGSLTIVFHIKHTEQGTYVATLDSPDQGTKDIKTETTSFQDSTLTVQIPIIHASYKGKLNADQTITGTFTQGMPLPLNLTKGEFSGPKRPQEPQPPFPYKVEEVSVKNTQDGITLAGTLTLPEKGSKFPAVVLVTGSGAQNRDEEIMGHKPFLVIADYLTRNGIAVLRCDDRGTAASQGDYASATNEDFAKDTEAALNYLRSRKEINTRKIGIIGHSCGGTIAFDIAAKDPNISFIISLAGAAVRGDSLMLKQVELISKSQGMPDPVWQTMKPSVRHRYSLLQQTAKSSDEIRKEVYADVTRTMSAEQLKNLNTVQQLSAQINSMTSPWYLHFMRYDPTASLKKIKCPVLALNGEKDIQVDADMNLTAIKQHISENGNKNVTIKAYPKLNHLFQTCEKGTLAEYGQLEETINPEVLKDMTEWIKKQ
The data set is described as §1.

Another data set concerns the target General stress protein (Bacteroides thetaiotaomicron, UniProt Q8A7U5). The data set is described as §1.

Chain of General stress protein (Q8A7U5 1-138, change not shown): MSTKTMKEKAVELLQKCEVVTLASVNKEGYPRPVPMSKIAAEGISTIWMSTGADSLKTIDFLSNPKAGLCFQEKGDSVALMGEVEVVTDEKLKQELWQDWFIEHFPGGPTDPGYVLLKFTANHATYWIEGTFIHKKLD

Regarding `C[C@@H]1CC[C@H]2[C@@H](C)C(=O)O[C@@H]3O[C@@]4(C)CC[C@@H]1[C@]32OO4` [ARTEMISININ], the “Bacterial Biotransformation” value (at Acyltransferase; in data set [1]; on Xylanase; in data set [2]; at Acylhydrolase; in data set [3]) was “Compound NOT metabolized” each time. Further, the figures for the “Bacterial Biotransformation” value at Lipoprotein and at General stress protein were “Compound NOT metabolized” and “Compound metabolized”, respectively.

Regarding `Nc1ccc(/N=N/c2ccccc2)c(N)n1` [PHENAZOPYRIDINE], the “Bacterial Biotransformation” value (on Acyltransferase; in data set [1]; on Xylanase; in data set [2]; on Acylhydrolase; in data set [3]) was “Compound NOT metabolized” throughout. Further, the results for the “Bacterial Biotransformation” value on Lipoprotein and at General stress protein were “Compound NOT metabolized” and “Compound metabolized”, respectively.

Take `CC(=O)OCC(=O)NCCCOc1cccc(CN2CCCCC2)c1` [ROXATIDINE ACETATE]: the “Bacterial Biotransformation” value is recorded as “Compound NOT metabolized” at Acyltransferase; “Compound NOT metabolized” in data set [1]; “Compound metabolized” at Xylanase; “Compound NOT metabolized” in data set [2]; “Compound metabolized” on Acylhydrolase; “Compound NOT metabolized” in data set [3]. Also, the “Bacterial Biotransformation” value on Lipoprotein and at General stress protein was “Compound NOT metabolized” each time.

For `CCS(=O)(=O)CCn1c([N+](=O)[O-])cnc1C` [TINIDAZOLE], the “Bacterial Biotransformation” value on Acyltransferase is “Compound NOT metabolized”; in data set [1] it was “Compound NOT metabolized”; at Xylanase, “Compound NOT metabolized”; in data set [2], “Compound metabolized”; on Acylhydrolase it was “Compound NOT metabolized”; in data set [3] it was “Compound NOT metabolized”. Besides, the “Bacterial Biotransformation” value at Lipoprotein and on General stress protein was “Compound NOT metabolized” in each case.

For the molecule `CC(=O)Oc1ccc(C(c2ccc(OC(C)=O)cc2)c2ccccn2)cc1` [BISACODYL], the “Bacterial Biotransformation” value on Acyltransferase is recorded as “Compound NOT metabolized”; in data set [1], “Compound NOT metabolized”; at Xylanase, “Compound metabolized”; in data set [2], “Compound NOT metabolized”; at Acylhydrolase it was “Compound metabolized”; in data set [3] it was “Compound metabolized”. The “Bacterial Biotransformation” value on Lipoprotein and on General stress protein was “Compound NOT metabolized” in each case.

Consider `CCOC(=O)C1=C(C)NC(C)=C(C(=O)OC)C1c1cccc([N+](=O)[O-])c1` (stereo not drawn) [NITRENDIPINE], for which the “Bacterial Biotransformation” value was “Compound NOT metabolized” on Acyltransferase; “Compound NOT metabolized” in data set [1]; “Compound metabolized” at Xylanase; “Compound metabolized” in data set [2]; “Compound NOT metabolized” at Acylhydrolase; “Compound NOT metabolized” in data set [3]. Also, on General stress protein, the “Bacterial Biotransformation” value is “Compound NOT metabolized”.

On to `O=C(O)c1cc(/N=N/c2ccc(S(=O)(=O)Nc3ccccn3)cc2)ccc1O` [SULFASALAZINE], for which the “Bacterial Biotransformation” value on Acyltransferase is “Compound NOT metabolized”; in data set [1], “Compound NOT metabolized”; in data set [2], “Compound metabolized”; in data set [3], “Compound NOT metabolized”; at Lipoprotein, “Compound NOT metabolized”; at General stress protein, “Compound metabolized”.
